This note sets out measurements from US20190322676A1, “CERAMIDE GALACTOSYLTRANSFERASE INHIBITORS FOR THE TREATMENT OF DISEASE” (BioMarin Pharmaceutical Inc., priority 2016, published 2019).

Counter-ions that a name gives are not always drawn.

This experiment concerns the target T1, human CGT (ceramide galactosyltransferase), CHO/CGT lysate (Homo sapiens, UniProt Q16880).
T1 construct: Full-length human CGT cDNA was cloned into the BamH1/Xho1 site of pcDNA3.1 (+); expressed in transfected cells; host or cells: Chinese hamster ovary (CHO) cells; lysate prepared with M-PER
T1 sequence (Q16880 21-541): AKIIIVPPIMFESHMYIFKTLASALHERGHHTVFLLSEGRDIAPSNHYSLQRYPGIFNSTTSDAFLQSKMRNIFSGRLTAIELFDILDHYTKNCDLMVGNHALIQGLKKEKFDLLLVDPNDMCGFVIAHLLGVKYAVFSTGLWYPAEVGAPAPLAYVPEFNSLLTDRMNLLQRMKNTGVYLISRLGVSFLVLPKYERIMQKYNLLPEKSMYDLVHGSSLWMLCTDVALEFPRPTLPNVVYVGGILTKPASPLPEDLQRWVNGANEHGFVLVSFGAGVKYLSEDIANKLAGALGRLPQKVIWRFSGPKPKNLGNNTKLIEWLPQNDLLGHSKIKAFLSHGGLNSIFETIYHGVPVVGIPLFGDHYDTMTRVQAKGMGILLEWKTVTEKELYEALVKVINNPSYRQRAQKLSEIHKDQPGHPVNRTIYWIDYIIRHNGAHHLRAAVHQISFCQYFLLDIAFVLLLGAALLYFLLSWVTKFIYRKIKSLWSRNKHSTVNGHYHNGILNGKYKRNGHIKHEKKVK
Kind of experiment: CGT enzyme assay, RapidFire/MS/MS readout (Table 1 ranges with one asterisk *). Particulars: RapidFire method (range with one asterisk *). It is filed as biochemical. The method, boiled down: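 Lysate (4 μg) of CHO cells transfected with full-length human CGT incubated 1 h at 37 °C with compound (0.001–50 μM) in pH 7.2 HEPES buffer with 10 μM C6-NBD-dihydro-ceramide, 17.5 μM UDP-galactose, Mg2+/Mn2+, CHAPS, BSA, 0.5% DMSO; ** set also contained 0.01% Tween 80. Product quantified by RapidFire/MS/MS, normalized to internal standard; IC50 from sigmoidal variable-slope fits.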

By IC50 is commonly meant the concentration at which inhibition is half-maximal. In the case of `NC1CC2CCC(C1)N2C(=O)[C@H](NS(=O)(=O)c1ccc2cc(OC3CCCC3)ccc2c1)C(F)(F)c1ccc(Oc2ccccc2)cc1` (stereo partly drawn) [Compound 86-2, N-((2S)-3-(3-amino-8-azabicyclo[3.2.1]octan-8-yl)-1,1-difluoro-3-oxo-1-(4-phenoxyphenyl)propan-2-yl)-6-(cyclopentyloxy)naphthalene-2-sulfonamide trifluoroacetate], the 50% inhibitory concentration (IC50) was 1 to 10 µM. The value for `CN([C@H](C(=O)N1C2CCC1CC(N)C2)C(F)(F)c1ccc(Oc2ccccc2)cc1)S(=O)(=O)c1ccc2cc(OC3CCCC3)ccc2c1` (stereo partly drawn) [Compound 87-1, N-((2R)-3-(3-amino-8-azabicyclo[3.2.1]octan-8-yl)-1,1-difluoro-3-oxo-1-(4-phenoxyphenyl)propan-2-yl)-6-(cyclopentyloxy)-N-methylnaphthalene-2-sulfonamide trifluoroacetate] was under 1 µM; that for `CN([C@@H](C(=O)N1C2CCC1CC(N)C2)C(F)(F)c1ccc(Oc2ccccc2)cc1)S(=O)(=O)c1ccc2cc(OC3CCCC3)ccc2c1` (stereo partly drawn) [Compound 87-2, N-((2S)-3-(3-amino-8-azabicyclo[3.2.1]octan-8-yl)-1,1-difluoro-3-oxo-1-(4-phenoxyphenyl)propan-2-yl)-6-(cyclopentyloxy)-N-methylnaphthalene-2-sulfonamide trifluoroacetate] was 1 to 10 µM; that for `NC1CC2CCC(C1)N2C(=O)[C@@H](NS(=O)(=O)c1ccc2c(cnn2CC2CCCC2)c1)C(F)(F)c1ccc(Cl)cc1` (stereo partly drawn) [Compound 88-1, N-((2R)-3-(3-amino-8-azabicyclo[3.2.1]octan-8-yl)-1-(4-chlorophenyl)-1,1-difluoro-3-oxopropan-2-yl)-1-(cyclopentylmethyl)-1H-indazole-5-sulfonamide] was 1 to 10 µM.

In turn, `NC1CC2CCC(C1)N2C(=O)[C@H](NS(=O)(=O)c1ccc2c(cnn2CC2CCCC2)c1)C(F)(F)c1ccc(Cl)cc1` (stereo partly drawn) [Compound 88-2, N-((2S)-3-(3-amino-8-azabicyclo[3.2.1]octan-8-yl)-1-(4-chlorophenyl)-1,1-difluoro-3-oxopropan-2-yl)-1-(cyclopentylmethyl)-1H-indazole-5-sulfonamide] gave an IC50 of 30 to 100 µM.

For the molecule `COc1cc(C(F)(F)[C@H](NS(=O)(=O)c2ccc3cc(OC4CCCC4)ccc3c2)C(=O)N2C3CCC2CC(N)C3)ccc1Br` (stereo partly drawn) [Compound 89-1, N-((2R)-3-(3-amino-8-azabicyclo[3.2.1]octan-8-yl)-1-(4-bromo-3-methoxyphenyl)-1,1-difluoro-3-oxopropan-2-yl)-6-(cyclopentyloxy)naphthalene-2-sulfonamide], the IC50 is under 1 µM.

Consider `COc1cc(C(F)(F)[C@@H](NS(=O)(=O)c2ccc3cc(OC4CCCC4)ccc3c2)C(=O)N2C3CCC2CC(N)C3)ccc1Br` (stereo partly drawn) [Compound 89-2, N-((2S)-3-(3-amino-8-azabicyclo[3.2.1]octan-8-yl)-1-(4-bromo-3-methoxyphenyl)-1,1-difluoro-3-oxopropan-2-yl)-6-(cyclopentyloxy)naphthalene-2-sulfonamide], for which the IC50 is 1 to 10 µM. The molecule `CCCCOc1cccc(C(F)(F)[C@H](NS(=O)(=O)c2ccc3cc(OC4CCCC4)ccc3c2)C(=O)N2C3CCC2CC(N)C3)c1` (stereo partly drawn) [Compound 90-1, N-((2R)-3-(3-amino-8-azabicyclo[3.2.1]octan-8-yl)-1-(3-butoxyphenyl)-1,1-difluoro-3-oxopropan-2-yl)-6-(cyclopentyloxy)naphthalene-2-sulfonamide trifluoroacetate] came in with an IC50 of under 1 µM. For `CCCCOc1cccc(C(F)(F)[C@@H](NS(=O)(=O)c2ccc3cc(OC4CCCC4)ccc3c2)C(=O)N2C3CCC2CC(N)C3)c1` (stereo partly drawn) [Compound 90-2, N-((2S)-3-(3-amino-8-azabicyclo[3.2.1]octan-8-yl)-1-(3-butoxyphenyl)-1,1-difluoro-3-oxopropan-2-yl)-6-(cyclopentyloxy)naphthalene-2-sulfonamide trifluoroacetate] the value was 1 to 10 µM; for `NC1CC2CCC(C1)N2C(=O)[C@@H](NS(=O)(=O)c1ccc2c(cnn2CC2CCCC2)c1)C(F)(F)c1ccc(C(F)(F)F)cc1` (stereo partly drawn) [Compound 92-1, N-((2R)-3-(3-amino-8-azabicyclo[3.2.1]octan-8-yl)-1,1-difluoro-3-oxo-1-(4-(trifluoromethyl)phenyl)propan-2-yl)-1-(cyclopentylmethyl)-1H-indazole-5-sulfonamide], under 1 µM. The value for `NC1CC2CCC(C1)N2C(=O)[C@H](NS(=O)(=O)c1ccc2c(cnn2CC2CCCC2)c1)C(F)(F)c1ccc(C(F)(F)F)cc1` (stereo partly drawn) [Compound 92-2, N-((2S)-3-(3-amino-8-azabicyclo[3.2.1]octan-8-yl)-1,1-difluoro-3-oxo-1-(4-(trifluoromethyl)phenyl)propan-2-yl)-1-(cyclopentylmethyl)-1H-indazole-5-sulfonamide] was 10 to 30 µM; that for `NC1CCN(C(=O)[C@@H](NS(=O)(=O)c2ccc3c(cnn3CC3CCCC3)c2)C(F)(F)c2ccc(C(F)(F)F)cc2)CC1` [Compound 93-1, (R)—N-(3-(4-aminopiperidin-1-yl)-1,1-difluoro-3-oxo-1-(4-(trifluoromethyl)phenyl)propan-2-yl)-1-(cyclopentylmethyl)-1H-indazole-5-sulfonamide] was 1 to 10 µM; that for `NC1CCN(C(=O)[C@H](NS(=O)(=O)c2ccc3c(cnn3CC3CCCC3)c2)C(F)(F)c2ccc(C(F)(F)F)cc2)CC1` [Compound 93-2, (S)—N-(3-(4-aminopiperidin-1-yl)-1,1-difluoro-3-oxo-1-(4-(trifluoromethyl)phenyl)propan-2-yl)-1-(cyclopentylmethyl)-1H-indazole-5-sulfonamide] was 30 to 100 µM. The value for `NC1CC2CCC(C1)N2C(=O)[C@@H](NS(=O)(=O)c1ccc2c(cnn2CC2CCCC2)c1)C(F)(F)c1ccc(-c2ccc(Cl)cc2)cc1` (stereo partly drawn) [Compound 94-1, N-((2R)-3-(3-amino-8-azabicyclo[3.2.1]octan-8-yl)-1-(4′-chloro-[1,1′-biphenyl]-4-yl)-1,1-difluoro-3-oxopropan-2-yl)-1-(cyclopentylmethyl)-1H-indazole-5-sulfonamide] was 1 to 10 µM.

`NC1CC2CCC(C1)N2C(=O)[C@H](NS(=O)(=O)c1ccc2c(cnn2CC2CCCC2)c1)C(F)(F)c1ccc(-c2ccc(Cl)cc2)cc1` (stereo partly drawn) [Compound 94-2, N-((2S)-3-(3-amino-8-azabicyclo[3.2.1]octan-8-yl)-1-(4′-chloro-[1,1′-biphenyl]-4-yl)-1,1-difluoro-3-oxopropan-2-yl)-1-(cyclopentylmethyl)-1H-indazole-5-sulfonamide] gave an IC50 of 10 to 30 µM. The value for `NC1CCN(C(=O)[C@@H](NS(=O)(=O)c2ccc3c(cnn3CC3CCCC3)c2)C(F)(F)c2ccc(-c3ccc(Cl)cc3)cc2)CC1` [Compound 95-1, (R)—N-(3-(4-aminopiperidin-1-yl)-1-(4′-chloro-[1,1′-biphenyl]-4-yl)-1,1-difluoro-3-oxopropan-2-yl)-1-(cyclopentylmethyl)-1H-indazole-5-sulfonamide] was under 1 µM. For `NC1CCN(C(=O)[C@H](NS(=O)(=O)c2ccc3c(cnn3CC3CCCC3)c2)C(F)(F)c2ccc(-c3ccc(Cl)cc3)cc2)CC1` [Compound 95-2, (S)—N-(3-(4-aminopiperidin-1-yl)-1-(4′-chloro-[1,1′-biphenyl]-4-yl)-1,1-difluoro-3-oxopropan-2-yl)-1-(cyclopentylmethyl)-1H-indazole-5-sulfonamide] the value was 10 to 30 µM; for `NC1CCN(C(=O)[C@@H](NS(=O)(=O)c2ccc3cc(OC4CCCC4)ccc3c2)C(F)(F)c2ccc(OC3CCCCC3)cc2)CC1` [Compound 97-1, (R)—N-(3-(4-aminopiperidin-1-yl)-1-(4-(cyclohexyloxy)phenyl)-1,1-difluoro-3-oxopropan-2-yl)-6-(cyclopentyloxy)naphthalene-2-sulfonamide], 1 to 10 µM; for `NC1CCN(C(=O)[C@H](NS(=O)(=O)c2ccc3cc(OC4CCCC4)ccc3c2)C(F)(F)c2ccc(OC3CCCCC3)cc2)CC1` [Compound 97-2, (S)—N-(3-(4-aminopiperidin-1-yl)-1-(4-(cyclohexyloxy)phenyl)-1,1-difluoro-3-oxopropan-2-yl)-6-(cyclopentyloxy)naphthalene-2-sulfonamide], 1 to 10 µM. For `NC1CCN(C(=O)[C@@H](NS(=O)(=O)c2ccc3cc(OC4CCCC4)ccc3c2)C(F)(F)c2ccc(Cl)cc2)CC1` [Compound 98-1, (R)—N-(3-(4-aminopiperidin-1-yl)-1-(4-chlorophenyl)-1,1-difluoro-3-oxopropan-2-yl)-6-(cyclopentyloxy)naphthalene-2-sulfonamide] the value was 1 to 10 µM; for `NC1CCN(C(=O)[C@H](NS(=O)(=O)c2ccc3cc(OC4CCCC4)ccc3c2)C(F)(F)c2ccc(Cl)cc2)CC1` [Compound 98-2, (S)—N-(3-(4-aminopiperidin-1-yl)-1-(4-chlorophenyl)-1,1-difluoro-3-oxopropan-2-yl)-6-(cyclopentyloxy)naphthalene-2-sulfonamide], 10 to 30 µM.
